Among the data in US4999351A, “7-aryl and heteroaryl ethers of desacetylforskolin” (Hoechst-Roussel Pharmaceuticals, Inc., priority 1989, dated 1991) are EC (50% increase) values, retold here.

Structures can show the parent of a compound that is named as a salt.

This experiment deals with isolated guinea pig atria. Briefly: Inotropic activity: increase in contractile force in isolated guinea pig atria. To be noted: Cavia porcellus; isolated left atrium, male guinea pig; 50% change of contractile force over the stabilized rate; Kreb's solution, 37° C., 3 Hz stimulation; read-out: Extrapolated ED50 value (concentration increasing contractile force by 50%). Here is the method:
The aryl and heteroaryl ethers of desacetylforskolin of the present invention are useful in the treatment of cardiac failure by virtue of their ability to elicit a positive inotropic effect as evidenced by an increase in contractile force in an isolated guinea pig atria assay which is performed as follows: Male guinea pigs weighing 200-300 grams are stunned with a blow to the back of the head. The heart is rapidly removed and placed in a petri dish containing Kreb's solution. The ventricle is separated from the atria, the atria are sectioned in the right and left atria, and double-O silk ligatures are tied to the apex of the left atrium. The atrium is fixed to a pair of platinum plate electrodes and suspended in a 20 ml tissue bath containing Kreb's solution aerated with 95% oxygen-5% carbon dioxide at 37° C. One end of the atrium is fixed to a hook in the electrode and the other end is connected to a Grass FT03 force displacement transducer. Resting tension and stabilization time are the same as described above. The atrium is stimulated at 3 Hz, 0.5 msec duration at supramaximal voltage (constant current) via a Grass S88 stimulator and constant current unit. Force of contraction is continuously displaced on a Gould recorder Test drug is prepared as in section A and is added to the tissue baths in the same fashion. Change in contractile force from baseline is determined for each concentration, and the change in contractile force (g) is plotted against accumulated drug concentration (ug/ml). The activity of the test drug, i.e., the increase in contractile force (g) from the stabilized force expressed as the percentage change at a given concentration is determined graphically, as in the ED50 -value, i.e., the extrapolated does (μg/ml) which increases the contractile force by 50% over the stabilized rate.
With `C=C[C@@]1(C)CC(=O)[C@]2(O)[C@@]3(C)[C@@H](O)CCC(C)(C)[C@@H]3[C@H](OC(=O)NCCN(C)C)[C@H](Oc3ccccn3)[C@@]2(C)O1` [A, 7-desacetyl-6-(2-dimethylaminoethylaminocarbonyl)-7-(pyridin-2-yl)forskolin hydrochloride hydrate], the EC (50% increase) is 0.009 µg/mL. On to `C=C[C@@]1(C)CC(=O)[C@]2(O)[C@@]3(C)[C@@H](O)CCC(C)(C)[C@@H]3[C@H](O)[C@H](Oc3ncccn3)[C@@]2(C)O1` [B, 7-Desacetyl-7-(pyrimidin-2-yl)forskolin], for which the EC (50% increase) is 0.01 µg/mL. For the compound `C=C[C@@]1(C)CC(=O)[C@]2(O)[C@@]3(C)[C@@H](O)CCC(C)(C)[C@@H]3[C@H](O)[C@H](OC(C)=O)[C@@]2(C)O1` [Compound C, Forskolin], the EC (50% increase) was 0.073 µg/mL.
